Test results as given in patent US20210369677A1, “SMALL MOLECULE ACTIVATORS OF POLYCYSTIN-2 (PKD2) AND USES THEREOF” (Northwestern University, priority 2020, published 2021).

Assays:
[1] = molecular target: T1, human polycystin-2 CTD EF hand (I704-P797) (Homo sapiens, UniProt Q13563); settings: Yang et al., 2015; read-out: Kd previously reported for this peptide; cited from earlier work
T1 construct: The C-terminal fragment of the human polycystin-2 (I704-P797) was cloned into the PET19b vector; 10xHis (N); made in house; host or cells: E. coli BL21 (DE3)
T1 sequence (Q13563 704-797): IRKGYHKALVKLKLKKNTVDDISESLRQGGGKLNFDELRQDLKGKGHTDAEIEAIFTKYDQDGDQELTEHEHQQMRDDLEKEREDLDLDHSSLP

[2] = molecular target: T2, polycystin-2 (Homo sapiens, UniProt Q13563, C331S/C344S); type: cell-based; settings: C331S:C334S double mutant
T2 construct: expressed in transfected cells
T2 sequence (Q13563 1-968 C331S/C344S): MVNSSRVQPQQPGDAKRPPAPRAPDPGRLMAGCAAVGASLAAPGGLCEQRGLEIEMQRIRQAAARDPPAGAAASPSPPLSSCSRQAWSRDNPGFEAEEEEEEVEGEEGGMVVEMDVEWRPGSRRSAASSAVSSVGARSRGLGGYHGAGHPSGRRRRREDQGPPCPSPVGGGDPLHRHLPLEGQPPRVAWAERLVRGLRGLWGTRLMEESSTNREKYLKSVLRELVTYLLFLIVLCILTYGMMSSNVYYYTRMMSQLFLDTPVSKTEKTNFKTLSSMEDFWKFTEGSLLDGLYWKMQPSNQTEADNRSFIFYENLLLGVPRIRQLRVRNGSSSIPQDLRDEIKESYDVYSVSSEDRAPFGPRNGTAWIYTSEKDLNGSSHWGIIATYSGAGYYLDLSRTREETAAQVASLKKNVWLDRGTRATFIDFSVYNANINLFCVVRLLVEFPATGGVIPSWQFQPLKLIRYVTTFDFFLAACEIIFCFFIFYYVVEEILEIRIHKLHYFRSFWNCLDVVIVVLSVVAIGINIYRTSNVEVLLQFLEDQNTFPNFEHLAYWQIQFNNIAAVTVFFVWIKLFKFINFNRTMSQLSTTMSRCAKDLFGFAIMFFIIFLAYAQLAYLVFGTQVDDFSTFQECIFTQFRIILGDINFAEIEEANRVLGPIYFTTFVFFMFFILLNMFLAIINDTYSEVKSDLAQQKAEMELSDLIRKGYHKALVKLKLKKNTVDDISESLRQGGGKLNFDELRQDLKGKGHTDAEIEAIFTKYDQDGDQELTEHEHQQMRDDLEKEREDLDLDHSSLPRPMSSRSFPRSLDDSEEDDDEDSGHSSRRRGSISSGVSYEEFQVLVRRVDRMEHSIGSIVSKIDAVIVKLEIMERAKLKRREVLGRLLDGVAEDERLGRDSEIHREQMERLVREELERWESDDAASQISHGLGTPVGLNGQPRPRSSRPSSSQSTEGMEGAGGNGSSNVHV

| SMILES | Kd [1] | Effect on C331S:C334S channel cilia current [2] |
| --- | --- | --- |
| [Ca+2] [Ca^2+, calcium] | 22 µM | – |
| [Gd] [gadolinium] | – | retaining its sensitivity to pore block |
